The text below walks through data of patent publication US8618151B2, “Inhibitors of HCV NS5A” (Presidio Pharmaceuticals, Inc., priority 2008, dated 2013).

The test system of this assay is HCV genotype 1b replicon. The assay is described as follows: HCV replicon assay (1b_Huh-Luc/Neo-ET cell line, luciferase readout). It is filed as cell-based. The conditions noted are these: Hepatitis C virus, Huh-7, 72 h, read-out: Inhibition of HCV genotype 1b. An outline of the steps: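 Luciferase activity (Bright-Glo) after 72 h compound exposure, in triplicate, measured replicon levels in Huh 7-derived 1b_Huh-Luc/Neo-ET cells. EC50 was fitted from percent-of-control values and determined in repeat runs.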
As to `COC(=O)N[C@H](C(=O)N1CCC[C@H]1c1ncc(-c2ccc3oc(-c4ccc(-c5cnc([C@@H]6CCCN6C(=O)[C@@H](NC(=O)OC)C6CCOCC6)[nH]5)cc4)nc3c2)[nH]1)C(C)C` [compound 259], the EC50 is under 1 nM.

Consider `COC(=O)N[C@H](C(=O)N1CCC[C@H]1c1ncc(-c2ccc3oc(-c4ccc(-c5cnc([C@@H]6CCCN6C(=O)[C@H](NC(=O)OC)c6ccccc6)[nH]5)cc4)nc3c2)[nH]1)C(C)C` [compound 260], for which the EC50 was under 1 nM.

Turning to `COC(=O)N[C@H](C(=O)N1CCC[C@H]1c1ncc(-c2ccc3ccc(C45CCC(c6cnc([C@@H]7CCCN7C(=O)[C@@H](NC(=O)OC)C(C)C)[nH]6)(CC4)CC5)cc3c2)[nH]1)C(C)C` [compound 261], the EC50 fell in the range of 1 to 9.9 nM.

Consider `COC(=O)N[C@H](C(=O)N1CCC[C@H]1c1nc(-c2ccc3nc(C45CCC(c6cnc([C@@H]7CCCN7C(=O)[C@@H](NC(=O)OC)C(C)C)[nH]6)(CC4)CC5)ccc3c2)c[nH]1)C(C)C` [compound 262], for which the EC50 was under 1 nM.

As to `COC(=O)N[C@@H](C(=O)N1CCC[C@H]1c1nc(-c2ccc3nc(C45CCC(c6cnc([C@@H]7CCCN7C(=O)[C@H](NC(=O)OC)c7ccccc7)[nH]6)(CC4)CC5)ccc3c2)c[nH]1)c1ccccc1` [compound 263], the EC50 was under 1 nM.

For `CN(C)[C@@H](C(=O)N1CCC[C@H]1c1nc(-c2ccc3nc(C45CCC(c6cnc([C@@H]7CCCN7C(=O)[C@@H](c7ccccc7)N(C)C)[nH]6)(CC4)CC5)ccc3c2)c[nH]1)c1ccccc1` [compound 264], the EC50 was 1 to 9.9 nM.

With `COC(=O)N[C@H](C(=O)N1CCC[C@H]1c1nc(-c2ccc3nc(C45CCC(c6cnc([C@@H]7CCCN7C(=O)[C@@H](NC(=O)OC)C7CC7)[nH]6)(CC4)CC5)ccc3c2)c[nH]1)C1CC1` [compound 265], the EC50 was under 1 nM.

Turning to `COC(=O)N[C@@H](C)C(=O)N1CCC[C@H]1c1nc(-c2ccc3nc(C45CCC(c6cnc([C@@H]7CCCN7C(=O)[C@H](C)NC(=O)OC)[nH]6)(CC4)CC5)ccc3c2)c[nH]1` [compound 266], the EC50 was under 1 nM.

For the compound `c1cc2nc(C34CCC(c5cnc([C@@H]6CCCN6)[nH]5)(CC3)CC4)ccc2cc1-c1c[nH]c([C@@H]2CCCN2)n1` [compound 267], the EC50 is over 1000 nM.

`CC(C)(C)OC(=O)N1CCCC1c1ncc(C23CCC(c4ccc5cc(-c6c[nH]c([C@@H]7CCCN7C(=O)OC(C)(C)C)n6)ccc5n4)(CC2)CC3)[nH]1` (some centres unmarked) [compound 268]: the EC50 was 10 to 999 nM.

Consider `COC(=O)N[C@H](C(=O)N1CCC[C@H]1c1nc(-c2ccc3c(c2)CCN(c2c(F)cc(-c4cnc([C@@H]5CCCN5C(=O)[C@@H](NC(=O)OC)C(C)C)[nH]4)cc2F)C3)c[nH]1)C(C)C` [compound 269], for which the EC50 is under 1 nM.

On to `COC(=O)N[C@@H](C(=O)N1CCC[C@H]1c1nc(-c2ccc3c(c2)CCN(c2c(F)cc(-c4cnc([C@@H]5CCCN5C(=O)[C@H](NC(=O)OC)c5ccccc5)[nH]4)cc2F)C3)c[nH]1)c1ccccc1` [compound 270], for which the EC50 was under 1 nM.

With `COC(=O)N[C@H](C(=O)N1CCC[C@H]1c1nc(-c2ccc3c(c2)CCN(c2c(F)cc(-c4cnc([C@@H]5CCCN5C(=O)[C@@H](NC(=O)OC)C5CC5)[nH]4)cc2F)C3)c[nH]1)C1CC1` [compound 271], the EC50 was under 1 nM.

On to `COC(=O)N[C@@H](C)C(=O)N1CCC[C@H]1c1nc(-c2ccc3c(c2)CCN(c2c(F)cc(-c4cnc([C@@H]5CCCN5C(=O)[C@H](C)NC(=O)OC)[nH]4)cc2F)C3)c[nH]1` [compound 272], for which the EC50 is under 1 nM.

As to `COC(=O)N[C@@H](C)C(=O)N1CCC[C@H]1c1nc(-c2ccc3nc(N4CCC(c5cnc([C@@H]6CCCN6C(=O)[C@H](C)NC(=O)OC)[nH]5)CC4)ccc3c2)c[nH]1` [compound 273], the EC50 fell in the range of 1 to 9.9 nM.

On to `COC(=O)N[C@H](C(=O)N1CCC[C@H]1c1nc(-c2ccc3nc(N4CCC(c5cnc([C@@H]6CCCN6C(=O)[C@@H](NC(=O)OC)C6CC6)[nH]5)CC4)ccc3c2)c[nH]1)C1CC1` [compound 274], for which the EC50 lay in the range of 1 to 9.9 nM.

For `COC(=O)N[C@H](C(=O)N1CCC[C@H]1c1nc(-c2ccc3nc(N4CCC(c5cnc([C@@H]6CCCN6C(=O)[C@@H](NC(=O)OC)C(C)C)[nH]5)CC4)ccc3c2)c[nH]1)C(C)C` [compound 275], the EC50 was under 1 nM.

Consider `COC(=O)N[C@H](C(=O)N1CCC[C@H]1c1nc2ccc(-c3ccc4cc(-c5ccc6nc([C@@H]7CCCN7C(=O)[C@@H](NC(=O)OC)C(C)C)[nH]c6c5)ccc4c3)cc2[nH]1)C(C)C` [compound 276], for which the EC50 was under 1 nM.

For the compound `COC(=O)N[C@H](C(=O)N1CCC[C@H]1c1nc2ccc(-c3cccc4c(-c5ccc6nc([C@@H]7CCCN7C(=O)[C@@H](NC(=O)OC)C(C)C)[nH]c6c5)cccc34)cc2[nH]1)C(C)C` [compound 277], the EC50 was under 1 nM.

Take `COC(=O)N[C@@H](C)C(=O)N1CCC[C@H]1c1nc2ccc(-c3ccc4cc(-c5ccc6nc([C@@H]7CCCN7C(=O)[C@H](C)NC(=O)OC)[nH]c6c5)ccc4c3)cc2[nH]1` [compound 278]: the EC50 was under 1 nM.

For the compound `COC(=O)N[C@H](C(=O)N1CCC[C@H]1c1nc2ccc(-c3ccc4cc(-c5ccc6nc([C@@H]7CCCN7C(=O)[C@@H](NC(=O)OC)C7CCOCC7)[nH]c6c5)ccc4c3)cc2[nH]1)C1CCOCC1` [compound 279], the EC50 was under 1 nM.

As to `COC(=O)N[C@H](C(=O)N1CCC[C@H]1c1nc2ccc(-c3ccc4nc(-c5ccc6nc([C@@H]7CCCN7C(=O)[C@@H](NC(=O)OC)C(C)C)[nH]c6c5)ccc4c3)cc2[nH]1)C(C)C` [compound 280], the EC50 is under 1 nM.

Turning to `COC(=O)N[C@H](C(=O)N1CCC[C@H]1c1nc2ccc(-c3ccc4cc(-c5ccc6nc([C@@H]7CCCN7C(=O)[C@@H](NC(=O)OC)C(C)C)[nH]c6c5)ncc4c3)cc2[nH]1)C(C)C` [compound 281], the EC50 was under 1 nM.

As for `COC(=O)N[C@H](C(=O)N1CCC[C@H]1c1nc2ccc(-c3ccc4cc(-c5ccc6nc([C@@H]7CCCN7C(=O)[C@@H](NC(=O)OC)C7CCOCC7)[nH]c6c5)ccc4c3)cc2[nH]1)C(C)C` [compound 282], the EC50 is under 1 nM.

Take `COC(=O)N[C@H](C(=O)N1CCC[C@H]1c1nc2ccc(-c3ccc4cc(-c5ccc6nc([C@@H]7CCCN7C(=O)[C@H](NC(=O)OC)c7ccccc7)[nH]c6c5)ccc4c3)cc2[nH]1)C(C)C` [compound 283]: the EC50 is under 1 nM.

On to `COC(=O)N[C@@H](C(=O)N1CCC[C@H]1c1nc(-c2ccc3nc(C4CCC(c5cnc([C@@H]6CCCN6C(=O)[C@H](NC(=O)OC)c6ccccc6)[nH]5)CC4)ccc3c2)c[nH]1)c1ccccc1` (some centres unmarked) [compound 286], for which the EC50 was under 1 nM.

Regarding `COC(=O)N[C@H](C(=O)N1CCC[C@H]1c1nc(-c2ccc3c(=O)n(-c4ccc(-c5cnc([C@@H]6CCCN6C(=O)[C@@H](NC(=O)OC)C(C)C)[nH]5)cc4)ccc3c2)c[nH]1)C(C)C` [compound 287], the EC50 was under 1 nM.

Regarding `COC(=O)N[C@@H](C(=O)N1CCC[C@H]1c1nc(-c2ccc3c(=O)n(-c4ccc(-c5cnc([C@@H]6CCCN6C(=O)[C@H](NC(=O)OC)c6ccccc6)[nH]5)cc4)ccc3c2)c[nH]1)c1ccccc1` [compound 288], the EC50 is under 1 nM.

`COC(=O)N[C@@H](C(=O)N1CCC[C@H]1c1nc(-c2ccc3c(c2)CCN(c2ccc(-c4cnc([C@@H]5CCCN5C(=O)[C@H](NC(=O)OC)c5ccccc5)[nH]4)cc2)C3=O)c[nH]1)c1ccccc1` [compound 289]: the EC50 is under 1 nM.
